Test results as given in ChEMBL document CHEMBL1151200, “Comparison of fascaplysin and related alkaloids: a study of structures, cytotoxicities, and sources” (J Nat Prod, 2004).

Key:
MC-38 = assay: Cytotoxicity against mouse C38 cells at 0.4 ug/disk by disk diffusion soft agar colony formation assay; type: functional
K562 = assay: Antitumor activity against human K562 cells; type: functional, cell-based
MCF7 [1] = assay: Antitumor activity against human MCF7 cells; type: functional, cell-based
NCI-H23 = assay: Antitumor activity against human NCI-H23 cells; type: functional, cell-based
[2] = Cytotoxicity against mouse CFU-GM cells at 0.4 ug/disk by disk diffusion soft agar colony formation assay; type: cell-based
MCF7 [3] = assay: Antitumor activity against […] human MCF7 cells; type: functional, cell-based
MDA-N = assay: Antitumor activity against human MDA-N cells; type: functional, cell-based
MDA-MB-435 = assay: Antitumor activity against human MDA-MB-435 cells; type: functional, cell-based
M14 = assay: Antitumor activity against human M14 cells; type: functional, cell-based
OVCAR-8 = assay: Antitumor activity against human OVCAR8 cells; type: functional, cell-based
MOLT-4 = assay: Antitumor activity against human MOLT4 cells; type: functional, cell-based
SNB-75 = assay: Antitumor activity against human SNB75 cells; type: functional, cell-based
PC-3 = assay: Antitumor activity against human PC3 cells; type: functional, cell-based
SF-268 = assay: Antitumor activity against human SF268 cells; type: functional, cell-based
OVCAR-3 = assay: Antitumor activity against human OVCAR-3 cells; type: functional, cell-based
NCI-H522 = assay: Antitumor activity against human NCI-H522 cells; type: functional, cell-based
KM12 = assay: Antitumor activity against human KM12 cells; type: functional, cell-based
HT-29 = assay: Antitumor activity against human HT-29 cells; type: functional, cell-based
DU-145 = assay: Antitumor activity against human DU145 cells; type: functional, cell-based
[4] = Antitumor activity against human 786-O cells; type: functional, cell-based; details: 786-0
CAKI-1 = assay: Antitumor activity against human Caki1 cells; type: functional, cell-based
CCRF-CEM [5] = assay: Antitumor activity against human CCRF-CEM cells; type: functional, cell-based
SK-OV-3 = assay: Antitumor activity against human SKOV3 cells; type: functional, cell-based
COLO 205 = assay: Antitumor activity against human COLO205 cells; type: functional, cell-based
[6] = Cytotoxicity against human H116 cells at 0.4 ug/disk by disk diffusion soft agar colony formation assay; type: functional
UACC-257 = assay: Antitumor activity against human UACC257 cells; type: functional, cell-based
EKVX = assay: Antitumor activity against human EKVX cells; type: functional, cell-based
OVCAR-5 = assay: Antitumor activity against human OVCAR5 cells; type: functional, cell-based
A549 = assay: Antitumor activity against human A549/ATCC cells; type: functional, cell-based
A498 = assay: Antitumor activity against human A498 cells; type: functional, cell-based
UO-31 = assay: Antitumor activity against human UO31 cells; type: functional, cell-based
SR = assay: Antitumor activity against human SR cells; type: functional, cell-based
HOP-62 = assay: Antitumor activity against human HOP62 cells; type: functional, cell-based
NCI-H460 = assay: Antitumor activity against human NCI-H460 cells; type: functional, cell-based
LOX IMVI = assay: Antitumor activity against human LOXIMVI cells; type: functional, cell-based
HCT-116 = assay: Antitumor activity against human HCT116 cells; type: functional, cell-based
ACHN = assay: Antitumor activity against human ACHN cells; type: functional, cell-based
U-251 = assay: Antitumor activity against human U251 cells; type: functional, cell-based
T47D = assay: Antitumor activity against human T47D cells; type: functional, cell-based
IGROV-1 = assay: Antitumor activity against human IGROV1 cells; type: functional, cell-based
TK-10 = assay: Antitumor activity against human TK10 cells; type: functional, cell-based
SF-539 = assay: Antitumor activity against human SF539 cells; type: functional, cell-based
UACC-62 = assay: Antitumor activity against human UACC62 cells; type: functional, cell-based
L1210 = assay: Cytotoxicity against mouse L1210 cells at 0.4 ug/disk by disk diffusion soft agar colony formation assay; type: functional
SF-295 = assay: Antitumor activity against human SF295 cells; type: functional, cell-based
NCI-H226 = assay: Antitumor activity against human NCI-H226 cells; type: functional, cell-based
OVCAR-4 = assay: Antitumor activity against human OVCAR4 cells; type: functional, cell-based
NCI-H322M = assay: Antitumor activity against human NCI-H322M cells; type: functional, cell-based
HCC 2998 = assay: Antitumor activity against human HCC2998 cells; type: functional, cell-based
RPMI-8226 = assay: Antitumor activity against human RPMI8226 cells; type: functional, cell-based
BT-549 = assay: Antitumor activity against human BT549 cells; type: functional, cell-based
SNB-19 = assay: Antitumor activity against human SNB19 cells; type: functional, cell-based
[7] = Cytotoxicity against human H125 cells at 0.4 ug/disk by disk diffusion soft agar colony formation assay; type: functional
SN12C = assay: Antitumor activity against human SN12C cells; type: functional, cell-based
RXF 393 = assay: Antitumor activity against human RXF393 cells; type: functional, cell-based
CCRF-CEM [8] = assay: Cytotoxicity against human CEM cells at 0.4 ug/disk by disk diffusion soft agar colony formation assay; type: functional
Malme-3M = assay: Antitumor activity against human MALME-3M cells; type: functional, cell-based
MDA-MB-231 = assay: Antitumor activity against human MDA-MB-231 cells; type: functional, cell-based
HL-60(TB) = assay: Antitumor activity against human HL-60(TB) cells; type: functional, cell-based
SK-MEL-28 = assay: Antitumor activity against human SK-MEL-28 cells; type: functional, cell-based
SK-MEL-5 = assay: Antitumor activity against human SK-MEL-5 cells; type: functional, cell-based
[9] = Antitumor activity against human Hs 578T cells; type: functional, cell-based
SW-620 = assay: Antitumor activity against human SW620 cells; type: functional, cell-based
HCT-15 = assay: Antitumor activity against human HCT15 cells; type: functional, cell-based

With `O=C1c2ccccc2-[n+]2ccc3c([nH]c4ccccc43)c21.[Cl-]` [FASCAPLYSIN CHLORIDE] the Activity (MC-38) was 500 Zone units, the IC50 (K562) was > 10 µM and the IC50 (MCF7 [1]) was > 10 µM. For the same molecule, the IC50 (NCI-H23) was 4.5 µM, the Activity [2] was 200 Zone units and the IC50 (MCF7 [3]) was > 10 µM. It also gave an IC50 (MDA-N) of 0.56 µM, an IC50 (MDA-MB-435) of 0.56 µM and an IC50 (M14) of 0.92 µM. The IC50 (OVCAR-8) was > 10 µM, the IC50 (MOLT-4) was > 10 µM and the IC50 (SNB-75) was 5.4 µM. The IC50 (PC-3) was > 10 µM, the IC50 (SF-268) was > 10 µM and the IC50 (OVCAR-3) was 1.5 µM. The IC50 (NCI-H522) was 4.5 µM, the IC50 (KM12) was 4.6 µM and the IC50 (HT-29) was > 10 µM. The IC50 (DU-145) was 4.9 µM, the IC50 [4] was 6.7 µM and the IC50 (CAKI-1) was 6.1 µM. For the same molecule, the IC50 (CCRF-CEM [5]) was > 10 µM, the IC50 (SK-OV-3) was > 10 µM and the IC50 (COLO 205) was 1.2 µM. For the same molecule, the Activity [6] was 500 Zone units, the IC50 (UACC-257) was > 10 µM and the IC50 (EKVX) was 5.1 µM. It also gave an IC50 (OVCAR-5) of 4.4 µM, an IC50 (A549) of 4.2 µM and an IC50 (A498) of 5.2 µM. The IC50 (UO-31) was > 10 µM, the IC50 (SR) was > 10 µM and the IC50 (HOP-62) was 4.7 µM. The IC50 (NCI-H460) was 4.2 µM, the IC50 (LOX IMVI) was > 10 µM and the IC50 (HCT-116) was 0.6 µM. The IC50 (ACHN) was > 10 µM, the IC50 (U-251) was 3.6 µM and the IC50 (T47D) was > 10 µM. For the same molecule, the IC50 (IGROV-1) was 4.5 µM, the IC50 (TK-10) was 5.4 µM and the IC50 (SF-539) was 4.2 µM. The IC50 (UACC-62) was 4.9 µM, the Activity (L1210) was 400 Zone units and the IC50 (SF-295) was 3.9 µM. It also gave an IC50 (NCI-H226) of 9.6 µM, an IC50 (OVCAR-4) of 5.3 µM and an IC50 (NCI-H322M) of 5 µM. The IC50 (HCC 2998) was 1.7 µM, the IC50 (RPMI-8226) was > 10 µM and the IC50 (BT-549) was > 10 µM. For the same molecule, the IC50 (SNB-19) was 6.1 µM, the Activity [7] was 400 Zone units and the IC50 (SN12C) was 4.2 µM. The IC50 (RXF 393) was 3.5 µM, the Activity (CCRF-CEM [8]) was 300 Zone units and the IC50 (Malme-3M) was 0.36 µM. The IC50 (MDA-MB-231) was > 10 µM, the IC50 (HL-60(TB)) was > 10 µM and the IC50 (SK-MEL-28) was 9.3 µM. For the same molecule, the IC50 (SK-MEL-5) was 2 µM, the IC50 [9] was > 10 µM and the IC50 (SW-620) was 3.7 µM. The IC50 (HCT-15) was > 10 µM.
